The test in a line: mGlu5 Ca2+ Flux Assay: HEK 293A cells stably expressing rat mGlu5 were plated in black-walled, clear-bottomed, poly-D-lysine coated 384-well plates in 20 μL of assay medium (DMEM containing 10% dialyzed FBS, 20 mM HEPES, 100 units/mL penicillin/streptomycin plus 250 ng/mL Fungizone, and 1 mM sodium pyruvate) at a density of 20K cells/well. The cells were grown overnight at 37° C. in the presence of 5% CO2. The next day, medium was removed and the cells incubated with 20 μL of 2.3 μM Fluo-4, AM prepared as a 2.3 mM stock in DMSO and mixed in a 1:1 ratio with 10% (w/v) pluronic acid F-127 and diluted in assay buffer (Hank's balanced salt solution, 20 mM HEPES, and 2.5 mM probenecid) for 45 minutes at 37° C. Dye was removed, 20 μL of assay buffer was added, and the plate was incubated for 5 minutes at room temperature.

Our source for the IC50 values is ChEMBL document CHEMBL5725412, “Substituted pyrazolo[1,5-a]pyrazines as negative allosteric modulators of metabotropic glutamate receptor 3” (2017).

As for `O=C1c2cc(CNc3ccc(OC(F)F)cc3)nn2CCN1c1ccc(F)cc1`, the IC50 turned out to be 334 nM.
In the case of `COc1ccc(N(C)Cc2cc3n(n2)CCN(c2ccc(OC)cc2)C3=O)cc1`, for the setting “HEK293-A”, the IC50 was 2880 nM.
With `COc1ccc(NCc2cc3n(n2)CCN(c2ccc(F)c(F)c2)C3=O)cc1`, the IC50 (HEK293-A) is 1470 nM.
As to `Cc1cccc(NCc2cc3n(n2)[C@H](C)CN(c2ccc(F)cc2)C3=O)c1`, the IC50 is 1210 nM.
On to `COc1ccc(N(C)Cc2cc3n(n2)CCN(c2c(F)cccc2F)C3=O)cc1`, for which, for the setting “HEK293-A”, the IC50 was found to be 1020 nM.
Same read-out and setting: for `Cc1cccc(NCc2cc3n(n2)[C@@H](C)CN(c2ccc(F)cc2)C3=O)c1` the value was 1840 nM.
